The values that follow come from patent publication US20090143279A1 (priority 2007, published 2009).

Read-outs that look alike come from different tables or passages of the source.

Assay [1] concerns mitochondrial membrane potential. The class given is cell-based, mouse.
A further assay has as its system reactive oxygen species. The class given is cell-based, mouse.
The test system of another assay is OXPHOS gene expression. Type of assay: cell-based, mouse.
A further assay concerns nuOXPHOS transcripts. Type of assay: cell-based, mouse.
In another assay the test system is mtOXPHOS transcripts. Type of assay: cell-based, mouse.
For another assay, the system named is cytochrome c. Type of assay: cell-based, mouse.
For assay [2], the system named is cellular dehydrogenase activity.
[3] abbreviates: composite Z-score vs DMSO, Conc 20 μM.
The mark [4] stands for this setting: Conc 20 μM, normalized score vs mock-treated (DMSO) wells.
Where [5] appears, read: normalized composite Z-score vs mock-treated (DMSO) wells, Conc 20 μM.
Where [6] appears, read: composite Z-score vs mock-treated (DMSO) wells, Conc 20 μM.
The mark [7] stands for this setting: composite Z-score vs DMSO wells, Conc 20 μM.
Setting [8] is: 20 μM, composite Z-score vs DMSO.
The mark [9] stands for this setting: composite Z-score vs mock-treated (DMSO) wells, concentration of each compound in μM.

In assay [1] (setting [3]), `COc1ccc(-c2coc3c(O)c(OC)ccc3c2=O)cc1` [retusin 7-methyl ether] showed a ΔΨm of −0.603. The ROS in the assay with reactive oxygen species (setting [3]) came to 0.088. Further, in the assay on OXPHOS gene expression (setting [3]), the GE-HTS came to 0.788. In addition, the nucOX in the assay on nuOXPHOS transcripts (setting [3]) stood at 0.765. Also, the mitoOX in the assay with mtOXPHOS transcripts (setting [3]) is 0.631. This compound displayed a cyt c in the assay with cytochrome c (setting [3]) of 0.412. Besides, the Viability in the assay on C2C12 myotubes (setting [3]) was −0.245. For the same compound, in assay [2] (setting [3]), the MTT is recorded as −0.627.
Consider `COc1ccc(-c2coc3c(OC)c(OC)ccc3c2=O)cc1` [retusin dimethyl ether], for which the “ΔΨm (composite Z-score)” value in assay [1] was found to be 0.378. Moreover, the “ROS (composite Z-score)” value in the assay with reactive oxygen species is given as 0.069. Also, the “GE-HTS (composite Z-score)” value in the assay with OXPHOS gene expression is −0.135. Besides, the “nucOX (composite Z-score)” value with nuOXPHOS transcripts is −0.033. In addition, the “mitoOX (composite Z-score)” value with mtOXPHOS transcripts is on record as −0.331. Moreover, the “cyt c (composite Z-score)” value in the assay with cytochrome c is recorded as −0.199. Further, in the assay with C2C12 myotubes, the “Viability (composite Z-score)” value amounted to 0.317. Also, in assay [2], the “MTT (composite Z-score)” value is listed as −1.263.
The compound `COC1=C(O)C(=O)c2c(cc3oc(C(C)=O)c(O)c3c2O)C1=O` [rhodocladonic acid] came in with a ΔΨm in assay [1] (setting [3]) of 0.068. The compound further had an ROS with reactive oxygen species (setting [3]) of 0.733. The same compound showed a GE-HTS in the assay with OXPHOS gene expression (setting [3]) of 0.294. In the assay on nuOXPHOS transcripts (setting [3]), this compound yielded a nucOX of 0.393. Further, in the assay on mtOXPHOS transcripts (setting [3]), the mitoOX is 0.072. In the assay on cytochrome c (setting [3]), this compound displayed a cyt c of 1.150. Besides, the Viability in the assay on C2C12 myotubes (setting [3]) was −0.416. Also, the MTT in assay [2] (setting [3]) was −1.057.
As for `Cc1c(O)c(C(=O)CC(C)C)c2oc3c(C(=O)CC(C)C)c(O)c(C)c(O)c3c2c1O` [rhodomyrtoxin], the “ΔΨm (composite Z-score)” value in assay [1] (setting [4]) is given as 2.834. For the same compound, the “ROS (composite Z-score)” value with reactive oxygen species (setting [4]) worked out at 0.397. Besides, in the assay on OXPHOS gene expression (setting [4]), the “GE-HTS (composite Z-score)” value was 0.357. Also, the “nucOX (composite Z-score)” value with nuOXPHOS transcripts (setting [4]) was found to be 0.412. Also, the “mitoOX (composite Z-score)” value in the assay on mtOXPHOS transcripts (setting [4]) was 0.206. Further, the “cyt c (composite Z-score)” value in the assay with cytochrome c (setting [4]) is given as −1.200. Also, the “Viability (composite Z-score)” value in the assay on C2C12 myotubes (setting [4]) was −0.636. Besides, the “MTT (composite Z-score)” value in assay [2] (setting [4]) stood at 2.413.
`C[C@@H]1O[C@@H](O[C@H]2[C@H](Oc3cc(O)c4c(=O)cc(-c5ccc(O)cc5)oc4c3)O[C@H](CO)[C@@H](O)[C@@H]2O)[C@H](O)[C@H](O)[C@H]1O` [rhoifolin]: in assay [1] (setting [5]), the ΔΨm is on record as −0.213. Also, the ROS with reactive oxygen species (setting [5]) is given as 0.471. The GE-HTS in the assay on OXPHOS gene expression (setting [5]) is listed as −0.838. For the same compound, in the assay with nuOXPHOS transcripts (setting [5]), the nucOX is on record as −0.774. This compound gave a mitoOX with mtOXPHOS transcripts (setting [5]) of −0.768. In addition, in the assay with cytochrome c (setting [5]), the cyt c is recorded as 0.515. In the assay with C2C12 myotubes (setting [5]), this compound had a Viability of 0.089. In assay [2] (setting [5]), this compound registered an MTT of −0.683.
`C1COC(NC(C2CC2)C2CC2)=N1` [rilmenidine] yielded a ΔΨm in assay [1] of −0.589. Besides, the ROS in the assay on reactive oxygen species is on record as 0.340. This compound yielded a GE-HTS with OXPHOS gene expression of 0.123. Also, in the assay with nuOXPHOS transcripts, the nucOX was 0.319. Besides, the mitoOX in the assay on mtOXPHOS transcripts is recorded as −0.313. In the assay on cytochrome c, the cyt c is given as −0.042. Also, the Viability in the assay with C2C12 myotubes was determined as 0.245. Further, the MTT in assay [2] is 0.082.
As to `COc1ccc(-c2c(OC)c3c(OC)c4c(cc3oc2=O)OC(C)(C)C=C4)cc1` [robustic acid methyl ether, reference compound], in assay [1] (setting [4]), the “ΔΨm (composite Z-score)” value is 0.692. Further, the “ROS (composite Z-score)” value in the assay with reactive oxygen species (setting [4]) stood at 1.431. For the same compound, the “GE-HTS (composite Z-score)” value in the assay with OXPHOS gene expression (setting [4]) turned out to be 0.230. For the same compound, the “nucOX (composite Z-score)” value in the assay with nuOXPHOS transcripts (setting [4]) was found to be 0.444. For the same compound, the “mitoOX (composite Z-score)” value with mtOXPHOS transcripts (setting [4]) was −0.223. The “cyt c (composite Z-score)” value with cytochrome c (setting [4]) was 0.679. In addition, in the assay on C2C12 myotubes (setting [4]), the “Viability (composite Z-score)” value stood at 0.497. In addition, in assay [2] (setting [4]), the “MTT (composite Z-score)” value was determined as 0.474.
Take `COc1ccc(-c2c(O)c3c(OC)c4c(cc3oc2=O)OC(C)(C)C=C4)cc1` [robustic acid, reference compound]: in assay [1] (setting [4]), the “ΔΨm (composite Z-score)” value is recorded as −1.086. Moreover, the “ROS (composite Z-score)” value with reactive oxygen species (setting [4]) is reported as −0.119. In the assay on OXPHOS gene expression (setting [4]), the “GE-HTS (composite Z-score)” value is −0.930. For the same compound, the “nucOX (composite Z-score)” value in the assay with nuOXPHOS transcripts (setting [4]) is reported as −0.973. The “mitoOX (composite Z-score)” value in the assay on mtOXPHOS transcripts (setting [4]) is −0.587. The “cyt c (composite Z-score)” value with cytochrome c (setting [4]) is −0.459. Further, in the assay with C2C12 myotubes (setting [4]), the “Viability (composite Z-score)” value is −1.213. The “MTT (composite Z-score)” value in assay [2] (setting [4]) was −1.831.
Consider `COc1cc2c(cc1OC)[C@@H]1C(=O)c3ccc(OC)c(CC=C(C)C)c3O[C@@H]1CO2` [rotenonic acid, methyl ether], for which, in assay [1] (setting [6]), the ΔΨm was −3.751. Moreover, in the assay on reactive oxygen species (setting [6]), the ROS was −3.513. In the assay on OXPHOS gene expression (setting [6]), this compound came in with a GE-HTS of −2.268. In the assay on nuOXPHOS transcripts (setting [6]), this compound showed a nucOX of −1.024. The same compound registered a mitoOX in the assay with mtOXPHOS transcripts (setting [6]) of −4.305. Besides, in the assay with cytochrome c (setting [6]), the cyt c was −3.644. In the assay on C2C12 myotubes (setting [6]), the Viability stood at 0.582. The same compound yielded an MTT in assay [2] (setting [6]) of −3.898.
As for `COc1cc2c(cc1OC)[C@@H]1C(=O)c3ccc(O)c(CC=C(C)C)c3O[C@@H]1CO2` [rotenonic acid, reference compound], the ΔΨm in assay [1] (setting [6]) was 0.050. In the assay on reactive oxygen species (setting [6]), this compound showed an ROS of 0.173. Besides, the GE-HTS in the assay with OXPHOS gene expression (setting [6]) is −0.064. The compound further gave a nucOX in the assay with nuOXPHOS transcripts (setting [6]) of −0.010. In the assay with mtOXPHOS transcripts (setting [6]), this compound displayed a mitoOX of −0.108. Further, in the assay with cytochrome c (setting [6]), the cyt c worked out at 0.365. Moreover, the Viability in the assay on C2C12 myotubes (setting [6]) turned out to be 0.206. The compound further showed an MTT in assay [2] (setting [6]) of −0.731.
In assay [1] (setting [3]), `CC[C@@]1(O)C[C@H](O)c2c(cc3c(c2O)C(=O)c2c(O)ccc(O)c2C3=O)[C@H]1C(=O)OC` [rutilantinone] registered a ΔΨm of −3.758. The compound also displayed an ROS in the assay with reactive oxygen species (setting [3]) of 2.445. The compound further returned a GE-HTS in the assay with OXPHOS gene expression (setting [3]) of −1.917. Further, the nucOX in the assay on nuOXPHOS transcripts (setting [3]) was −1.152. Moreover, in the assay with mtOXPHOS transcripts (setting [3]), the mitoOX was −3.039. The cyt c with cytochrome c (setting [3]) is on record as 0.372. Moreover, the Viability in the assay with C2C12 myotubes (setting [3]) was 0.192. Besides, the MTT in assay [2] (setting [3]) is recorded as −2.979.
As for `OCc1ccccc1O` [salicyl alcohol], in assay [1] (setting [7]), the ΔΨm is −0.590. For the same compound, the ROS in the assay with reactive oxygen species (setting [7]) is 0.479. This compound displayed a GE-HTS in the assay on OXPHOS gene expression (setting [7]) of −0.486. In the assay with nuOXPHOS transcripts (setting [7]), this compound had a nucOX of −0.433. This compound yielded a mitoOX in the assay with mtOXPHOS transcripts (setting [7]) of −0.498. For the same compound, the cyt c in the assay on cytochrome c (setting [7]) worked out at 0.424. This compound also showed a Viability with C2C12 myotubes (setting [7]) of 0.377. In assay [2] (setting [7]), this compound had an MTT of −0.178.
Turning to `CC[C@@H](C(=O)[C@@H](C)[C@@H](O)[C@H](C)[C@@H]1O[C@@H]([C@@H](CC)C(=O)O)CC[C@@H]1C)[C@H]1O[C@]2(C=C[C@@H](O)[C@]3(CC[C@@](C)([C@H]4CC[C@](O)(CC)[C@H](C)O4)O3)O2)[C@H](C)C[C@@H]1C` [salinomycin, reference compound], in assay [1] (setting [8]), the ΔΨm came out at 2.976. For the same compound, in the assay on reactive oxygen species (setting [8]), the ROS is given as −3.111. In the assay with OXPHOS gene expression (setting [8]), this compound yielded a GE-HTS of −1.400. This compound also showed a nucOX in the assay on nuOXPHOS transcripts (setting [8]) of −0.345. Besides, the mitoOX with mtOXPHOS transcripts (setting [8]) is on record as −3.359. Moreover, the cyt c in the assay with cytochrome c (setting [8]) is −0.566. In addition, the Viability in the assay on C2C12 myotubes (setting [8]) is reported as −0.247. The compound further had an MTT in assay [2] (setting [8]) of −2.918.
`C[C@@H]1NCCc2cc(O)c(O)cc21` [salsolinol]: in assay [1] (setting [9]), the ΔΨm was −0.160. In addition, in the assay on reactive oxygen species (setting [9]), the ROS was −0.248. Moreover, in the assay on OXPHOS gene expression (setting [9]), the GE-HTS is reported as −0.284. The same compound registered a nucOX with nuOXPHOS transcripts (setting [9]) of −0.197. Further, the mitoOX in the assay with mtOXPHOS transcripts (setting [9]) is −0.397. For the same compound, the cyt c in the assay on cytochrome c (setting [9]) was −0.994. In addition, the Viability in the assay with C2C12 myotubes (setting [9]) is reported as −1.127. The compound further came in with an MTT in assay [2] (setting [9]) of −1.113.
